# Assay results from patent publication US6083959A, “Quinoline derivatives, processes for their preparation and their use as medicaments” (Fujisawa Pharmaceutical Co., Ltd., priority 1996, dated 2000).
# Structures can show the parent of a compound that is named as a salt.
# Target: T1, Bradykinin Receptor (Cavia porcellus, UniProt O70526)
# T1 construct: The ileum was removed and homogenized in buffer; from tissue; host or cells: guinea pig (male Hartley strain) ileum, crude membrane
# T1 sequence (O70526 1-372): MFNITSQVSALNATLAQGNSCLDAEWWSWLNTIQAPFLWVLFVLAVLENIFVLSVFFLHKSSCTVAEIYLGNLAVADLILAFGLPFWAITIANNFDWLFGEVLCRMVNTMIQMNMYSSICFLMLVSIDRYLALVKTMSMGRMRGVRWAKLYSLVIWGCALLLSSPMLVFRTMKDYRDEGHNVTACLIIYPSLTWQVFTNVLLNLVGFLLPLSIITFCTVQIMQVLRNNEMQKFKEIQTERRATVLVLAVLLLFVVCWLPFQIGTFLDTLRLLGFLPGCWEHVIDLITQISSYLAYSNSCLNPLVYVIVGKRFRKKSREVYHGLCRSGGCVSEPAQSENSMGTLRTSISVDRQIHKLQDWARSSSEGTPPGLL
# Experiment: ^3 H-Bradykinin Receptor Binding (crude guinea pig ileum membrane)
# Details: ^3 H-Bradykinin 0.06 nM, room temperature, 60 minutes, read-out: Inhibition of ^3 H-Bradykinin binding IC50
# Protocol: ^3 H-Bradykinin Receptor Binding
# (a) Crude Ileum Membrane Preparation
# Male Hartly strain guinea pigs were sacrificed by decapitation. The ileum was removed and homogenized in buffer (50 mM 2-[[tris(hydroxymethyl)methyl]amino]-1-ethanesulfonic acid (TES), 1 mM 1,10-phenanthroline pH 6.8). The homogenate was centrifuged (1000×g,20 minutes) to remove tissue clumps and the supernatant was centrifuges (100,000×g, 60 minutes) to yield a pellet. The pellet was resuspended in buffer (50 mM TES, 1 mM 1,10-phenanthroline, 140 mg/l bacitracin, 1 mM dithiothreiol, 0.1% bovine serum albumin pH 6.8) and homogenized with a glass-teflon homogenizer to yield suspension which was referred to as crude membrane suspension. The obtained membrane suspension was stored at -80° C. until use.
# (b) ^3 H-Bradykinin Binding to the Membrane
# The frozen crude membrane suspension was thawed. In binding assays, ^3 H-Bradykinin (0.06 nM) and drug were incubated with 50 μl of the membrane suspension at room temperature for 60 minutes in a final volume of 250 μl. Separation of receptor-bound from free ^3 H-Bradykinin is achieved by immediate filtration under vacuum and washed three times with 5 ml of ice-cold buffer (50 mM Tris-HCl pH 7.5). Non-specific binding was defined as binding in the presence of 0.1 μM Bradykinin. The radioactivity retained on rinsed filters was determined by a liquid-scintillation counter.
row,Structure (SMILES),IC50
1,"Cc1cc(-n2ccnc2)c2cccc(OCc3c(Cl)ccc(N(C)C(=O)CNC(=O)C=Cc4ccc(C(=O)NCc5ccccn5)cc4)c3Cl)c2n1 [2-(3) (trihydrochloride), 8-[2,6-Dichloro-3-[N-methyl-N-[4-[N-(2-pyridylmethyl)carbamoyl]cinnamoylglycyl]amino]benzyloxy]-4-(imidazol-1-yl)-2-methylquinoline]",4.5 nM
2,"Cc1cc(-n2ccnc2)c2cccc(OCc3c(Cl)ccc(N(C)C(=O)CNC(=O)Nc4cccc(C(=O)Nc5ccncc5)c4)c3Cl)c2n1 [3 (trihydrochloride), 8-[2,6-dichloro-3-[N-methyl-N-[N'-[3-[N-(4-pyridyl)carbamoyl]phenyl]ureidoacetyl]amino]benzyloxy]-4-(imidazol-1-yl)-2-methylquinoline]",6.6 nM
3,"Cc1cc(-n2cccn2)c2cccc(OCc3c(Cl)ccc(N(C)C(=O)CNC(=O)C=Cc4ccc(C(=O)N(C)C)cc4)c3Cl)c2n1 [11-(4) (dihydrochloride), 8-[2,6-Dichloro-3-[N-methyl-N-[4-(dimethylcarbamoyl)cinnamoylglycyl]amino]benzyloxy]-2-methyl-4-(pyrazol-1-yl)quinoline]",3.3 nM

# Continued, values first:
row,IC50,Structure (SMILES)
1,9.1 nM,"Cc1cc(-n2cncn2)c2cccc(OCc3c(Cl)ccc(N(C)C(=O)CNC(=O)C=Cc4ccc(C(=O)N(C)C)cc4)c3Cl)c2n1 [12 (dihydrochloride), 8-[2,6-Dichloro-3-[N-methyl-N-[4-(dimethylcarbamoyl)cinnamoylglycyl]amino]benzyloxy]-2-methyl-4-(1,2,4-triazol-1-yl)quinoline]"
2,3.9 nM,"CCOC(=O)c1ccc(C=CC(=O)NCC(=O)N(C)c2ccc(Cl)c(COc3cccc4c(-n5ccnc5)cc(C)nc34)c2Cl)cc1 [17-(1), 8-[2,6-Dichloro-3-[N-(4-ethoxycarbonylcinnamoylglycyl)-N-methylamino]benzyloxy]-4-(imidazol-1-yl)-2-methylquinoline]"
